Measured values from patent US9199983B2, “3-aryl-6-aryl-[1,2,4]triazolo[4,3-α]pyridines as inhibitors of cell proliferation and the use thereof” (priority 2010, dated 2015).

What was measured:
caspase-3 activation [1] = assay: Caspase-3 activation (apoptosis induction) in A549 cells; type: cell-based; settings: Homo sapiens, A-549 cells, 24 h treatment, read-out: EC50 to induce caspase-3 activation, A-549
Experimental: (§1) Identification of 3-(2-methoxyphenyl)-6-(4-methoxyphenyl)-[1,2,4]triazolo[4,3-a]pyridine and analogs as inducers of apoptosis in solid tumor cells
(§2) Human breast cancer cell line T-47D and lung cancer cell line A549, growing in DMEM/F12+10% FBS media were seeded to a density of 20000 cells/well in 96-well cell culture plate and grew overnight (18-24 h) in CO2 cell culture incubator at 37° C. Next day the medium were removed by aspiration and […] fresh growth media was added to each well followed by […] of growth media containing 10× concentration of reference or testing compounds with 10% DMSO. Twenty four hours later, cell culture plates were centrifuged at 1000 g for 5 min and the supernatant was removed by emptying contents into a reservoir. Fifty μl of Lysis Buffer (10 mM Tris, pH7.5, 0.1M NaCl, 1 Mm EDTA, 0.01% Triton X-100) was added to each well and the plates were incubated with gentle agitation on an orbital shaker at 4° C. for 30 min. The plates were then centrifuged at 1000 g for 10 min at 4° C. and 20 μl of the supernatant was transferred from each well to a corresponding well in a black 384-well. Twenty μl of caspase-3 assay buffer (20 mM PIPES, pH7.4, 4 Mm EDTA and 0.2% CHAPS) containing 20 μM fluorogenic caspase-3 substrate ((Ac-DEVD)2-R110, AnaSpec Cat #60304-5) was added to each well. The samples were mixed by agitation and incubated at 37° C. for 3 h. The fluorescent intensity of each well was read on a fluorescent plate reader (Varioskan Flash, Thermo Fisher Scientific) with excitation wavelength at 496 nm and emission wavelength at 520 nm. The activity of compounds on caspase-3 activation was determined by plotting the relative fluorescent unit (RFU) against the testing concentrations of the compounds. The EC50 values were determined by fitting the above responding curves into Prism sigmoidal dose-response equation (GraphPad Software, Inc).

[2] = test system: Human lung cancer cell line A549; assay: MTT cancer cell cytotoxicity assay, A549; type: cell-based; settings: Homo sapiens, A549 cells, 48-72 h
Outline: (§3)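 Seeding: HepG2 and A549 at 3000, SMMC7721 at 5000, B16F10 at 2000 cells/well, attached overnight. Compounds (10 μM to 1 nM, triplicate) were applied for 48-72 h at 37 °C, followed by 4 h MTT. A550 minus A660 was fitted for IC50, with untreated wells as maximum and reference-drug total kill as background.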

[3] = test system: liver cancer cell line SMMC7721; assay: MTT cancer cell cytotoxicity assay, SMMC7721; type: cell-based, human; settings: Homo sapiens, SMMC-7721, SMMC7721 cells, 48-72 h
Outline: as §3

[4] = test system: mouse melanoma cell line B16F10; assay: MTT cancer cell cytotoxicity assay, B16F10; type: cell-based; settings: Mus musculus, B16-F10, B16F10 cells, 48-72 h
Experimental: Identification of 3-(2-methoxyphenyl)-6-(4-methoxyphenyl)-[1,2,4]triazolo[4,3-a]pyridine and analogs as inhibitors of cell proliferation that were evaluated with standard MTT cancer cell cytotoxicity assay (IC50)
Human lung cancer cell line A549, breast cancer cell line T47D, liver cancer cell lines HepG2 and SMMC7721 as well as a mouse melanoma cell line B16F10 were used in the study. The cells were cultured in corresponding growth media recommended by American Type Culture Collection (ATCC) with the supplementation of penicillin G (100 U/ml)/streptomycin (100 µg/ml), and 10% fetal bovine serum (Hangzhou Sijiqing Biological Engineering Materials, Co., Ltd. China) at 37° C. in a humidified atmosphere containing 5% CO2. Cells at about 80% confluency were harvested by trypsinization. Cells were centrifuged, re-suspended in fresh growth media and counted. Corresponding numbers of cells were seeded to 96-well cell culture plates (HepG2 cell, T-47D and A549 cells at 3000 cells/well, SMMC-7721 cells at 5000 cells/well and B16F10 cells at 2000 cells/well) in a total volume of […]. Cells were incubated in CO2 incubator over night to allow the cells to attach. In next day, […] of medium containing testing (from 10 μM to 1 nM) or reference compounds was added to each well of the cells. Media without compound were used as 100% control. Cells were treated with each concentration of compounds in triplicates to ensure data accuracy. Cells were incubated with compounds in CO2 incubator for an additional 48-72 h at 37° C. After incubation, cells were removed from the CO2 incubator and […] of 5 mg/ml MTT (3-(4,5-dimethylthiazole-2-yl)-2,5-diphenyltetrazoliumbromide, Sigma) solution in PBS was added to each well. Cells were returned to CO2 incubator and incubated for additional 4 h. After the incubation, media were removed by aspiration and […] DMSO was added to each well. Plates were sealed with aluminum foil and shaked mildly on an orbital shaker for 10 min at room temperature. The absorption was measured at 550 nm with a plate reader (Varioskan Flash, Thermo Fisher Scientific) with 660 nm reading used as background control. The relative absorbance readings were calculated by subtracting readings at 660 nm from that at 550 nm. The relative absorbance was plotted again the concentrations of the testing compounds and the plots were fitted with a one-site lg(IC50) equation using Prism 5 software (GraphPad Software, Inc). The equation used in the curve fitting is as follows: relative absorbance reading=background reading+(maximal reading−brackground reading)/(1+10 ^(compound concentration-log IC50)). The background reading used in the calculation was obtained with 100% cell death using a reference anticancer drug, whereas the maximal reading was obtained in the well with no added compound. The IC50 value calculated from the equation represents the cytotoxic potency of a particular compound.

[5] = test system: breast cancer cell line T47D; assay: MTT cancer cell cytotoxicity assay, T47D; type: cell-based, human; settings: Homo sapiens, T47D cells, 48-72 h
Outline: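 Human T47D breast cancer cells, cultured per ATCC recommendations with 10% fetal bovine serum and penicillin/streptomycin, were plated at 3000 cells/well in 96-well plates. After overnight attachment they were exposed in triplicate to compounds (10 μM to 1 nM) for 48-72 h. MTT was then added for 4 h and the formazan dissolved in DMSO. Absorbance at 550 nm minus 660 nm was fitted in Prism 5 to give IC50.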

[6] = test system: liver cancer cell line HepG2; assay: MTT cancer cell cytotoxicity assay, HepG2; type: cell-based, human; settings: Homo sapiens, HepG2 cells, 48-72 h
Outline: as §3

caspase-3 activation [7] = assay: Caspase-3 activation (apoptosis induction) in T-47D cells; type: cell-based; settings: Homo sapiens; T47D cells, 24 h treatment; read-out: EC50 to induce caspase-3 activation, T47D
Experimental: as §1, §2

COc1ccc(-c2ccc3nnc(-c4ccccc4OC)n3c2)cc1F [Example 35, 6-(3-Fluoro-4-methoxyphenyl)-3-(2-methoxyphenyl)-[1,2,4]triazolo[4,3-a]pyridine]
EC50 (caspase-3 activation [1]): 25 nM | IC50 [2]: 20 nM | IC50 [3]: 9.9 nM | IC50 [4]: 16 nM | IC50 [5]: 68 nM | IC50 [6]: 19 nM | EC50 (caspase-3 activation [7]): 228 nM
